Test results: US20190292189A1, “LIM KINASE INHIBITORS” (VIRONGY, LLC, priority 2016, published 2019)
Read-outs that look alike come from different tables or passages of the source.

Experiments:
[1] = Plasma pharmacokinetics studies on rats; details: rats; for AUC (iv) / Cl (iv) / T1/2 (iv) / Yd (iv) / Cmax: iv dosing 1 mg/kg; for F (%) (po): po dosing 2 mg/kg; for Cmax: read-out: Cmax (iv)
Protocol: In vivo pharmacokinetics (PK) studies were conducted for selected compounds during the whole optimization at various stages in order to identify structural elements that are favorable for in vivo applications, and/or to evaluate the feasibility of optimized Limk inhibitors for animal studies.

ROCK-I = ROCK-I (Homo sapiens, UniProt Q13464); experiment: ROCK-I biochemical counter-screen; details: Table 6; read-out: Biochemical Inhibition IC50 (nM) ROCK-I
Chain of ROCK-I (Q13464 whole entry, species assumed): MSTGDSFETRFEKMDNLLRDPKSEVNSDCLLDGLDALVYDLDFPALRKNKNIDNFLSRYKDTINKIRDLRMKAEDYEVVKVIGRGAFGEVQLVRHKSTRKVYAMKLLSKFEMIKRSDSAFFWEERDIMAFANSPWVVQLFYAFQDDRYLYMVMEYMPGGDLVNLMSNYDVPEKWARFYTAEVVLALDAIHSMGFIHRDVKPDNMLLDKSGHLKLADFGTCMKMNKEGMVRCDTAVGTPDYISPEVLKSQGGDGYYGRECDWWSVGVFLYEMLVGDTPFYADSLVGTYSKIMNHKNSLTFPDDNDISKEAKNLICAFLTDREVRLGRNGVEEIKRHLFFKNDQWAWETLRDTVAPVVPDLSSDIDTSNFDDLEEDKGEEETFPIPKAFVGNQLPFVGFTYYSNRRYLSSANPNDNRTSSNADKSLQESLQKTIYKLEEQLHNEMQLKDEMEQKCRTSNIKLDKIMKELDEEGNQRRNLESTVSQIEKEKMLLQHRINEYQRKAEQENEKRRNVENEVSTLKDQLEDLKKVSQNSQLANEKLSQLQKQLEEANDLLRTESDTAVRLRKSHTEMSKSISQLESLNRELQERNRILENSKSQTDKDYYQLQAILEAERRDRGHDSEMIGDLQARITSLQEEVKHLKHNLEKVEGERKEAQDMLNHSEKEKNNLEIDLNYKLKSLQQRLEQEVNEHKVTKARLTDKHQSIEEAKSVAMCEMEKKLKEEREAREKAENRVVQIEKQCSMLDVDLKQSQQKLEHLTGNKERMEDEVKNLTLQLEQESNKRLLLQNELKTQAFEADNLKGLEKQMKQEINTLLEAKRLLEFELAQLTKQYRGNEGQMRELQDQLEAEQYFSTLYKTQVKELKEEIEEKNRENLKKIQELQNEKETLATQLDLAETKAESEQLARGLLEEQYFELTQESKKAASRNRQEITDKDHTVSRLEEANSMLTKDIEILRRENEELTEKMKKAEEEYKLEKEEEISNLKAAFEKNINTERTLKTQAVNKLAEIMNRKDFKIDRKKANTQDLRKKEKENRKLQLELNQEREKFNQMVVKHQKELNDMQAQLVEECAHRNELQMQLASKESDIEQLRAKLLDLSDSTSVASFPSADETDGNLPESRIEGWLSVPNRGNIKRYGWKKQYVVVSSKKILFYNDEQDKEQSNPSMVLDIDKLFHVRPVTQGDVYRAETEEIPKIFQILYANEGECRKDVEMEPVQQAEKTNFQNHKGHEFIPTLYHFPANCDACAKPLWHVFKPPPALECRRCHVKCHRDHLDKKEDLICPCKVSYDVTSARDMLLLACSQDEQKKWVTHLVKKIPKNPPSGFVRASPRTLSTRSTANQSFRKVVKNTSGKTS

ROCK-II = ROCK-II (Homo sapiens, UniProt O75116); experiment: ROCK-II biochemical counter-screen; details: means of ≥2 experiments, read-out: IC50 (nM) ROCK-II
Chain of ROCK-II (O75116 whole entry, species assumed): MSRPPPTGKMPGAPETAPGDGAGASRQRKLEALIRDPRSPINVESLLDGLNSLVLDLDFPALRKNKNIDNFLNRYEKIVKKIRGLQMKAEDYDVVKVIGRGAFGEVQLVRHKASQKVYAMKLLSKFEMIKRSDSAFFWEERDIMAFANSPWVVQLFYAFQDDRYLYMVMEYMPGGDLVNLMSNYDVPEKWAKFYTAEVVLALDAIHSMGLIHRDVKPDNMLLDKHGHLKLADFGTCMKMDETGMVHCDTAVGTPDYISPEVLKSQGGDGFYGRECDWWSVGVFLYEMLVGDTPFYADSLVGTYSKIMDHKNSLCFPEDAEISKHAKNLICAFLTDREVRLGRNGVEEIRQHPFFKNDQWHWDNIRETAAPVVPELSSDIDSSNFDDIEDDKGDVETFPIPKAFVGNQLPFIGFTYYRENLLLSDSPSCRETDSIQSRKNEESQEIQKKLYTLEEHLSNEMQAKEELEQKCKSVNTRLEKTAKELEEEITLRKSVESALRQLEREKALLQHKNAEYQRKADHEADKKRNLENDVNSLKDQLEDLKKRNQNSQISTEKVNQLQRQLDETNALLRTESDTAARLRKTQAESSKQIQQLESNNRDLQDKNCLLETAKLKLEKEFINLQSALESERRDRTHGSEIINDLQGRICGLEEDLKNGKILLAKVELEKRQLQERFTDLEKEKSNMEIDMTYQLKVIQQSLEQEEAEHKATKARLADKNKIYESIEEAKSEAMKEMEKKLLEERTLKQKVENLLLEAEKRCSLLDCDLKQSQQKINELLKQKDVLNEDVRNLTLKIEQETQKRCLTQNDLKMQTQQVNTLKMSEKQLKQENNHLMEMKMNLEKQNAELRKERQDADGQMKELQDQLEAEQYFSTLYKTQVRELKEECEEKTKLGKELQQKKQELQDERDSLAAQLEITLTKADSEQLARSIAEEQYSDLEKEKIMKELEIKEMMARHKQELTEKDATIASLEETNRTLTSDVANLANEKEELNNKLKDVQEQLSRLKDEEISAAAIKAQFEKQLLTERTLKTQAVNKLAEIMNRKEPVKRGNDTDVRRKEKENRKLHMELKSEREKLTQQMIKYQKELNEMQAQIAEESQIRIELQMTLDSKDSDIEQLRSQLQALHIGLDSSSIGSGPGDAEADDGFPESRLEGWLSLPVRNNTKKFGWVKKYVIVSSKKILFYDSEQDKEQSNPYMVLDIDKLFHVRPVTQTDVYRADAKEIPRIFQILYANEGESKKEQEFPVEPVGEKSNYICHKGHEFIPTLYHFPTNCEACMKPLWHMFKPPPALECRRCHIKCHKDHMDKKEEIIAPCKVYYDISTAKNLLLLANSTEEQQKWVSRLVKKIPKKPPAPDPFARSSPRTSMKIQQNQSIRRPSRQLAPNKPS

[2] = Microsomal stability, human liver microsomes; assay type: in vitro ADME
P450 2C9 = P450 2C9 (Homo sapiens, UniProt P11712); experiment: P450 inhibition at 10 μM; assay type: in vitro ADME
Chain of P450 2C9 (P11712 whole entry): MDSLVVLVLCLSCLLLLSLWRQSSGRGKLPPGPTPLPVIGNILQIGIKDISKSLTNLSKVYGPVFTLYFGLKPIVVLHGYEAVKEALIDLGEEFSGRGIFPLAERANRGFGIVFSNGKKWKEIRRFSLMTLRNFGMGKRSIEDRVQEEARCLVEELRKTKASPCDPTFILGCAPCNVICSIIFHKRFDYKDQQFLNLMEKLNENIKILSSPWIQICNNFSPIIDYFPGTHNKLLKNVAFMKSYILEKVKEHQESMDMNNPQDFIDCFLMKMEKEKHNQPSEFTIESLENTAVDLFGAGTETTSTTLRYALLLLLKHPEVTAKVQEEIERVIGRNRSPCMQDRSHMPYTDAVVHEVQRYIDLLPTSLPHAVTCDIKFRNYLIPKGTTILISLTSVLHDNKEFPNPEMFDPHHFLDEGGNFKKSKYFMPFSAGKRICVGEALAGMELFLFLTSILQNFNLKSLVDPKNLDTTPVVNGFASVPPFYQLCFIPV

P450 2D6 = P450 2D6 (Homo sapiens, UniProt P10635); experiment: P450 inhibition at 10 μM; assay type: in vitro ADME
Chain of P450 2D6 (P10635 whole entry): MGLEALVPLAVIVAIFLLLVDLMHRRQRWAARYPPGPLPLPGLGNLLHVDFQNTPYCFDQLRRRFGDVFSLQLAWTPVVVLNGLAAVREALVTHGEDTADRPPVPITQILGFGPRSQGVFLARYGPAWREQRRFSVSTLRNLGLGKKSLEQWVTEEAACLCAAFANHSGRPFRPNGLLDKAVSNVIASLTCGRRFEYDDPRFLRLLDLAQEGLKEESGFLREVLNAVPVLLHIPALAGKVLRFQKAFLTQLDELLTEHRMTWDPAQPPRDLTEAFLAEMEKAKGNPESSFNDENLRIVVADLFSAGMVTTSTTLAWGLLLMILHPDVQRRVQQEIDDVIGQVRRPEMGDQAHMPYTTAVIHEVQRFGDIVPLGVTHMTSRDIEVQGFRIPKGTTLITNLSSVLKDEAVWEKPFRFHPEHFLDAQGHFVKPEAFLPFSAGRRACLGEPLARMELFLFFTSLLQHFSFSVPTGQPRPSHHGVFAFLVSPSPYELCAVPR

Limk1 = Limk1 (Homo sapiens, UniProt P53667); experiment: Limk1 biochemical assay (Reaction Biology, 10-dose IC50); design: His; purchased Reaction Biology Corporation; host or cells: insect cells
Chain of Limk1 (P53667 285-638): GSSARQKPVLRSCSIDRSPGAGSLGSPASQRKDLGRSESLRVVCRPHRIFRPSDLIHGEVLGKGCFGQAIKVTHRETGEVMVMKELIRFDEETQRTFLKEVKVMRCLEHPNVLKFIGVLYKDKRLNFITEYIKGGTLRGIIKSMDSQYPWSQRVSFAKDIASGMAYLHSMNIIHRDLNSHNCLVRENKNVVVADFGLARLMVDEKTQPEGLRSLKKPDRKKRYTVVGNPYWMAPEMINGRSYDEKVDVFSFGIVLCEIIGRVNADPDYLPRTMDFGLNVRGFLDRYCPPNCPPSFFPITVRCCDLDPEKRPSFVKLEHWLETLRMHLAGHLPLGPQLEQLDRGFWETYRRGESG

P450 1A2 = molecular target: T1, P450 1A2 (Homo sapiens, UniProt P05177)
T1 sequence (P05177 1-516): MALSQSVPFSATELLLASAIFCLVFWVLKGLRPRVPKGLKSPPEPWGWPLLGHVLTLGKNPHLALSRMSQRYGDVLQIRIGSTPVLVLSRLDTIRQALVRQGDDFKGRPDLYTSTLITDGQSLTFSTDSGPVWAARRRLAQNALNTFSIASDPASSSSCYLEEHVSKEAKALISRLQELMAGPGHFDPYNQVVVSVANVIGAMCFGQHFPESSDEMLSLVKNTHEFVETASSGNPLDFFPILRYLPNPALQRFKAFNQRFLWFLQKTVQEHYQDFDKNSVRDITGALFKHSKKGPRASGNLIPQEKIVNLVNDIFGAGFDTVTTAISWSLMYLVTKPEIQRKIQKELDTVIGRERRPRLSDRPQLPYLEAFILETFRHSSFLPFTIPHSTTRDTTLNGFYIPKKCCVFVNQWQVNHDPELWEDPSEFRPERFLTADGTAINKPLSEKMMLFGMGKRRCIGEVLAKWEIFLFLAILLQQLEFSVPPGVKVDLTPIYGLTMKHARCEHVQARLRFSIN

P450 3A4 = P450 3A4 (Homo sapiens, UniProt P08684); experiment: P450 inhibition at 10 μM; assay type: in vitro ADME
Chain of P450 3A4 (P08684 whole entry): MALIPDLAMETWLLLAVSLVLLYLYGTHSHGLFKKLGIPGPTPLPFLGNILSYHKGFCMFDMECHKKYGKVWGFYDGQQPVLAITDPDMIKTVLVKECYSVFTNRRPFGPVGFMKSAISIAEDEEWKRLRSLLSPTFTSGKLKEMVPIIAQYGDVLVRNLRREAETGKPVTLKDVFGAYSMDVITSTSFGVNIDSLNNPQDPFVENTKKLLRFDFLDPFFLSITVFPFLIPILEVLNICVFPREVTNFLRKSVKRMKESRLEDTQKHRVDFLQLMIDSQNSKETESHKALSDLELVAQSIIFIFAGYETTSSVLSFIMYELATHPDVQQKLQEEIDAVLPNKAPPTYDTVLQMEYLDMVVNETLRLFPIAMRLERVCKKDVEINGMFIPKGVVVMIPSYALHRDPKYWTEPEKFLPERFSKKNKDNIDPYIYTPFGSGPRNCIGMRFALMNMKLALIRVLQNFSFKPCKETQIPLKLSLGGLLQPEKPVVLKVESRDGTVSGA

[3] = Microsomal stability, rat liver microsomes; assay type: in vitro ADME
JNK3 = JNK3 (Homo sapiens, UniProt P53779); experiment: JNK3 biochemical counter-screen; details: Table 6; read-out: Biochemical Inhibition IC50 (nM) JNK3
Chain of JNK3 (P53779 whole entry, species assumed): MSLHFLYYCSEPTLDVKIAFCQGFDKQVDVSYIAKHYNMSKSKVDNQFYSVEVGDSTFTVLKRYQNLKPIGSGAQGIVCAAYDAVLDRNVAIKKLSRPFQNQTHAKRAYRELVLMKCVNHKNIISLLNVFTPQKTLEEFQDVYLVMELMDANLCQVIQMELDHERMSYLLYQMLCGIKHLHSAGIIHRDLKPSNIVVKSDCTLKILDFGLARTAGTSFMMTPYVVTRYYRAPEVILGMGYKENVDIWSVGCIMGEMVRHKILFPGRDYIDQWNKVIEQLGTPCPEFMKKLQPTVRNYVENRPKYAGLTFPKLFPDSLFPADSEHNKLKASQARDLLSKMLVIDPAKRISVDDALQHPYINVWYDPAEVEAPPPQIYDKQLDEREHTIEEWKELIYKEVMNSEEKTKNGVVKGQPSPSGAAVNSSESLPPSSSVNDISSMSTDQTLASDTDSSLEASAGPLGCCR

[4] = tested on: cofilin phosphorylation in A7r5 cells; experiment: In-cell Western assay of cofilin phosphorylation in A7r5 cells; assay type: cell-based
Protocol: A7r5 (15,000 cells/well) were plated in a clear-bottomed Packard View black 96-well plate in 100 μl of 10% FBS DMEM:F12 medium and were allowed to attach overnight. The next day, the cells were serum starved in 1% FBS DMEM medium for 2 hr and then treated with the compounds for 1 hr. […] Next day, they were washed twice with PBS-0.1% Tween 20 (PBST) washing solution for 5 min each at room temperature on the orbital shaker, followed by one wash with Licor Blocking Buffer containing 0.05% Tween-20 for 5 min on the shaker at RT. The cells were then incubated with secondary antibody goat anti-rabbit IR800 (1:500 dilution) for 1 hr at RT in the dark (covered the plate with foil) in Licor blocking buffer-containing Tween-20. Following this, cells were washed twice with PBST for 5 min each at room temperature and then once with Licor blocking buffer-containing 0.05% Tween-20. The wells were then incubated with ToPro 3 stain (nucleic acid staining), diluted 1:4000 in Licor blocking buffer or Licor blocking buffer with 0.05% Tween-20 for 30 min at room temperature in the dark. Finally the plates were washed twice with PBS and analyzed using the Odyssey LICOR Infrared Scanner.

HIV-1(NL4-3) = experiment: microbe, parasite or virus in culture; assay type: cell-based; details: […]; dosages with no detectable cytotoxicity
[5] = Table 4, means of ≥2 experiments, read-out: IC50 (nM) Limk1

Row | SMILES | AUC (iv) [1] [µM·h] | Cl (iv) [1] [mL/min/kg] | T1/2 (iv) [1] [min] | Cmax [1] [µM] | IC50 (ROCK-I) [nM] | Microsomal Stability t1/2 (min) Human [2] [min] | P450 % inh. at 10 μM 2C9 (P450 2C9) [%] | P450 % inh. at 10 μM 2D6 (P450 2D6) [%] | P450 % inh. at 10 μM 1A2 (P450 1A2; 10 μM) [%] | P450 % inh. at 10 μM 3A4 (P450 3A4) [%] | Microsomal Stability t1/2 (min) Rat ([3]; rat liver microsomes) [min] | IC50 (JNK3) [nM] | IC50 (ROCK-II; Table 4) [nM] | IC50 (Limk1; Table 8, read-out: LIMK1 IC50) [nM] | X4 HIV infection (screen) (HIV-1(NL4-3)) | also measured
1 | Cc1c[nH]c2ncnc(-c3ccc(NC(=O)Nc4cccc(C(=O)NC(C)C)c4)c(F)c3)c12 [Compound 7k, 3-(3-(2-Fluoro-4-(5-methyl-7H-pyrrolo[2,3-d]pyrimidin-4-yl)phenyl)ureido)-N-isopropylbenzamide] | 5.5 | 7.1 | 90 | 5.1 | 2390 | 27 | 35 | 13 | 29 | 32 | 55 | – | – | – | – | Yd (iv) [1]: 0.7 L/kg; F (%) (po) [1]: 0%; IC50 (ROCK-II; Table 2): 781 nM; IC50 (Limk1; read-out: Limk1 IC50): 18 nM
2 | Cc1c[nH]c2ncnc(-c3ccc(NC(=O)N(CCO)c4ccc(F)cc4)cc3)c12 [Compound 18e, 1-(4-Fluorophenyl)-1-(2-hydroxyethyl)-3-(4-(5-methyl-7H-pyrrolo[2,3-d]pyrimidin-4-yl)phenyl)urea] | – | – | – | – | 3920 | 44 | 13 | 3 | −4 | 25 | 52 | > 10000 | 3240 | – | – | –
3 | Cc1c[nH]c2ncnc(-c3ccc(NC(=O)N(CCO)c4cccc(Cl)c4)cc3)c12 [Compound 18g, 1-(3-Chlorophenyl)-1-(2-hydroxyethyl)-3-(4-(5-methyl-7H-pyrrolo[2,3-d]pyrimidin-4-yl)phenyl)urea] | – | – | – | – | 15000 | – | 31 | 2 | – | 42 | – | – | 11300 | – | – | IC50 (Limk1; [5]): 67 nM; P450 % inh. at 10 μM 1A2 (P450 1A2): −19/31/2/42%; Microsomal Stability t1/2 (min) Rat [3]: 20 min; IC50 ([4]; A7R5, read-out: Cofilin Phosphorylation In A7r5 Cells (IC50, nM)): 372 nM
4 | Cc1c[nH]c2ncnc(-c3ccc(NC(=O)N(CCO)c4ccc(Cl)cc4)cc3)c12 [Compound 18h, 1-(4-Chlorophenyl)-1-(2-hydroxyethyl)-3-(4-(5-methyl-7H-pyrrolo[2,3-d]pyrimidin-4-yl)phenyl)urea] | 13.2 | 3.0 | 156 | 10.5 | 5920 | >120 | 23 | – | – | 27 | 73 | > 10000 | 4360 | – | – | IC50 ([4]; A7R5, A7r5 cells, read-out: Cofilin Phosphorylation In A7r5 Cells (IC50)): ~100 nM
5 | Cc1ccc(N(CCO)C(=O)Nc2ccc(-c3ncnc4[nH]cc(C)c34)cc2)cc1 [Compound 18k, 1-(2-Hydroxyethyl)-3-(4-(5-methyl-7H-pyrrolo[2,3-d]pyrimidin-4-yl)phenyl)-1-p-tolylurea] | 15.6 | 2.7 | 108 | 9.4 | 7630 | 56 | 24 | −4 | −5 | 5 | 39 | > 10000 | 5930 | – | – | Yd (iv) [1]: 0.3 L/kg; F (%) (po) [1]: 24%; IC50 (Limk1; [5]): 37 nM
6 | COc1cccc(N(CCO)C(=O)Nc2ccc(-c3ncnc4[nH]cc(C)c34)cc2)c1 [Compound 18m, 1-(2-Hydroxyethyl)-1-(3-methoxyphenyl)-3-(4-(5-methyl-7H-pyrrolo[2,3-d]pyrimidin-4-yl)phenyl)urea] | – | – | – | – | 4320 | 38 | 17 | 3 | – | 44 | 21 | – | 3220 | – | – | IC50 (Limk1; [5]): 100 nM; P450 % inh. at 10 μM 1A2 (P450 1A2): 3/17/3/44%
7 | COc1ccc(N(CCO)C(=O)Nc2ccc(-c3ncnc4[nH]cc(C)c34)cc2)cc1 [Compound 18n, 1-(2-hydroxyethyl)-1-(4-methoxyphenyl)-3-(4-(5-methyl-7H-pyrrolo[2,3-d]pyrimidin-4-yl)phenyl)urea] | 19.4 | 2.1 | 132 | 10.6 | > 20000 | 56 | – | – | – | – | 40 | > 10000 | > 10000 | – | – | IC50 (Limk1; [5]): 53 nM
8 | Cc1[nH]c2ncnc(-c3ccc(NC(=O)N(CCO)c4ccc(Cl)cc4)c(F)c3)c2c1C [Compound 18s, 1-(4-Chlorophenyl)-3-(4-(5,6-dimethyl-7H-pyrrolo[2,3-d]pyrimidin-4-yl)-2-fluorophenyl)-1-(2-hydroxyethyl)urea] | 14.5 | 4.5 | 192 | 12.3 | – | 99 | 13 | 8 | 40 | 16 | 44 | > 10000 | – | – | – | Yd (iv) [1]: 0.5 L/kg; F (%) (po) [1]: 29%
9 | Cc1[nH]c2ncnc(-c3ccc(NC(=O)N(CCN)c4ccc(Cl)cc4)c(F)c3)c2c1C [Compound 18t, 1-(2-Amino-ethyl)-1-(4-chloro-phenyl)-3-[4-(5,6-dimethyl-7H-pyrrolo[2,3-d]pyrimidin-4-yl)-2-fluoro-phenyl]-urea] | – | – | – | – | – | >120 | 24 | 52 | 24 | −11 | >120 | > 10000 | – | – | – | –
10 | Cc1c[nH]c2ncnc(N3CCC(c4nc5cc(C#N)ccc5[nH]4)CC3)c12 [Compound R8212] | – | – | – | – | – | – | – | – | – | – | – | – | – | 44 ± 6 | blocked | –
11 | CC1(c2nc3ccc(C(=O)NC4CCC4)cc3[nH]2)CCN(c2ncnc3[nH]ccc23)CC1 [Compound R8482] | – | – | – | – | – | – | – | – | – | – | – | – | – | 41 ± 4 | blocked | –
12 | Cc1c[nH]c2ncnc(-c3ccc(-c4nc5ccc(C(=O)NC6CCCC6)cc5[nH]4)c(F)c3)c12 [Compound R8584] | – | – | – | – | – | – | – | – | – | – | – | – | – | 50 ± 7 | blocked | –
13 | CC(C)NC(=O)c1ccc2[nH]c(N3CCN(c4ncnc5[nH]cc(Cl)c45)C[C@@H]3C)nc2c1 [Compound R10543] | – | – | – | – | – | – | – | – | – | – | – | – | – | 5 ± 2 | blocked | –
14 | CCOC(=O)c1ccc2nc(N3CCN(c4ncnc5[nH]cc(Cl)c45)[C@H](C)C3)[nH]c2c1 [Compound R10659] | – | – | – | – | – | – | – | – | – | – | – | – | – | 45 ± 6 | blocked | –
